This is an account of results in patent US9550785B2, “Pyrrolopyrimidines as therapeutic agents for the treatment of diseases” (GlaxoSmithKline LLC, priority 2012, dated 2017).

Where a name gives a salt, the structure may show the parent alone.

For one experiment, the system named is Interferon-α. The experiment can be described thus: Induction of Interferon-α using fresh human whole blood (WB). In kind it is cell-based. The note with it: three donors, overnight incubation, cytokine released as percentage of 2 μM resiquimod control, read-out: mean pEC50 for INF-α (converted). How it is done:
(§1) Assay for the Induction of Interferon-α and TNF-α Using Fresh Human Whole Blood (WB)
(§2) Compounds were prepared at 100× required concentration in DMSO in flat-bottom microtitre plates at a volume of 1.5 μL. Columns 1-10 contained a 1 in 4 serial dilution of the test compound. Included on each plate was a serial dilution of the TLR7/8 agonist resiquimod as a standard and Column 11 contained 1.5 μl of 200 μM resiquimod (giving a 2 μM final concentration, used to define the approximate maximal response to resiquimod). Each compound was assayed in duplicate for each donor.
(§3) Blood samples from three human donors were collected into sodium heparin (10 U/ml). 150 μl of whole Blood was dispensed into Col 1 to 11 of assay plates containing 1.5 μl of test compound or standard in DMSO. Plates were placed in an incubator overnight (37° C., 95% air, 5% CO2). Following the overnight incubation, plates were removed from the incubator & mixed on an orbital shaker for approximately 1 minute. 100 μl of 0.9% saline was added to each well and the plates mixed again on an orbital shaker. Plates were then centrifuged (2500 rpm, 10 mins), after which a sample of plasma was removed using a Biomek FX and assayed for both IFN-α and TNF-α using the MSD (Mesoscale Discovery) electrochemiluminescence assay platform. The IFN-α assay was carried out similarly to that described above. The TNF-α assay was carried out as per kit instructions (Cat No K111BHB).
(§4) Cytokine released was expressed as a percentage of the 2 μM resiquimod control (column 11). This percentage was plotted against compound concentration and the pEC50 for the response determined by non-linear least squares curve fitting. For the IFN-α responses, generally a 4 parameter logistic model was selected. For the TNF-α responses where a clear maximum response was obtained (i.e. a well defined plateau in the response was observed) then a 4 parameter model was generally used. […]

The test system of another experiment is TNF-α. The experiment can be described thus: Induction of TNF-α using fresh human whole blood (WB). It counts as cell-based. The note with it: three donors, overnight incubation, cytokine released as percentage of 2 μM resiquimod control, read-out: mean pEC50 for TNF-α (converted). How it is done: as §1, §2, §3, §4

As for `CCCCc1nc(N)c2[nH]cc(CCC3CCNCC3)c2n1` [Example 3, 2-Butyl-7-(2-(piperidin-4-yl)ethyl)-5H-pyrrolo[3,2-d]pyrimidin-4-amine], the EC50 in the experiment with Interferon-α is ≤ 0.398 µM; in the experiment on TNF-α it was ≤ 10 µM.

On to `CCCCc1nc(N)c2[nH]cc(CCCC3CCN(C(C)C)CC3)c2n1` [Example 2, 2-Butyl-7-(3-(1-isopropylpiperidin-4-yl)propyl)-5H-pyrrolo[3,2-d]pyrimidin-4-amine], for which the EC50 in the experiment on Interferon-α was ≤ 0.398 µM; with TNF-α, ≤ 10 µM.

Regarding `CCCCc1nc(N)c2[nH]cc(CCCC3CCNCC3)c2n1` [Example 1, 2-Butyl-7-(3-(piperidin-4-yl)propyl)-5H-pyrrolo[3,2-d]pyrimidin-4-amine formate], the values for the EC50 in the experiment with Interferon-α and in the experiment on TNF-α were ≤ 0.398 µM and ≤ 10 µM, respectively.
